The NIST ThermoML archive (doi:10.1021/acs.jced.7b00347)

Assay: mn = molality of the nth substance listed, in mol/kg
Conditions: for surface tension liquid-gas: Ring tensiometer; for electrical conductivity: 100 kPa, Liquid, Alternating current cell with electrodes

CCCCCCCCCCCC[NH+](CCO)CC(C)O.[Cl-] (stereo unspecified) + O
Conditions | electrical conductivity [S/m] | surface tension liquid-gas [mN/m]
293.15 K, m1 = 1.54e-05 | 0.00031 | –
293.15 K, m1 = 1.543e-05 | – | 59.21
293.15 K, m1 = 3.087e-05 | – | 52.72
293.15 K, m1 = 3.859e-05 | – | 50.31
293.15 K, m1 = 3.95e-05 | 0.00039 | –
293.15 K, m1 = 6.35e-05 | 0.00047 | –
293.15 K, m1 = 7.717e-05 | – | 44.02
293.15 K, m1 = 8.75e-05 | 0.000551 | –
293.15 K, m1 = 0.0001116 | 0.000631 | –
293.15 K, m1 = 0.0001356 | 0.000711 | –
293.15 K, m1 = 0.0001544 | – | 37.72
293.15 K, m1 = 0.0001596 | 0.000791 | –
293.15 K, m1 = 0.0001837 | 0.000872 | –
293.15 K, m1 = 0.0002077 | 0.000952 | –
293.15 K, m1 = 0.0002315 | – | 34.11
293.15 K, m1 = 0.0002317 | 0.00103 | –
293.15 K, m1 = 0.0002558 | 0.00111 | –
293.15 K, m1 = 0.0002798 | 0.00119 | –
293.15 K, m1 = 0.0003038 | 0.00127 | –
293.15 K, m1 = 0.0003087 | – | 31.52
293.15 K, m1 = 0.0003279 | 0.00135 | –
293.15 K, m1 = 0.0003519 | 0.00144 | 30.47
293.15 K, m1 = 0.0003819 | 0.00148 | –
293.15 K, m1 = 0.0004119 | 0.00153 | –
293.15 K, m1 = 0.0004419 | 0.00159 | –
293.15 K, m1 = 0.0004719 | 0.00163 | –
293.15 K, m1 = 0.0005018 | 0.00169 | –
293.15 K, m1 = 0.0005318 | 0.00174 | –
293.15 K, m1 = 0.0005618 | 0.00179 | –
293.15 K, m1 = 0.0005918 | 0.00184 | –
293.15 K, m1 = 0.0006218 | 0.00189 | –
293.15 K, m1 = 0.0006518 | 0.00194 | –
293.15 K, m1 = 0.0006818 | 0.00199 | –
293.15 K, m1 = 0.0007118 | 0.00204 | –
293.15 K, m1 = 0.0007417 | 0.00209 | –
293.15 K, m1 = 0.0007717 | 0.00214 | 30.03
293.15 K, m1 = 0.001543 | – | 29.53
293.15 K, m1 = 0.002315 | – | 29.53
298.15 K, m1 = 1.54e-05 | 0.00041 | –
298.15 K, m1 = 1.543e-05 | – | 54.03
298.15 K, m1 = 3.087e-05 | – | 48.02
298.15 K, m1 = 3.51e-05 | 0.000488 | –
298.15 K, m1 = 3.859e-05 | – | 45.91
298.15 K, m1 = 5.47e-05 | 0.000565 | –
298.15 K, m1 = 7.43e-05 | 0.000643 | –
298.15 K, m1 = 7.717e-05 | – | 40
298.15 K, m1 = 9.39e-05 | 0.000721 | –
298.15 K, m1 = 0.0001136 | 0.000798 | –
298.15 K, m1 = 0.0001332 | 0.000876 | –
298.15 K, m1 = 0.0001528 | 0.000954 | –
298.15 K, m1 = 0.0001544 | – | 34.51
298.15 K, m1 = 0.0001724 | 0.00103 | –
298.15 K, m1 = 0.000192 | 0.00111 | –
298.15 K, m1 = 0.0002117 | 0.00119 | –
298.15 K, m1 = 0.0002313 | 0.00127 | –
298.15 K, m1 = 0.0002315 | – | 31.42
298.15 K, m1 = 0.0002509 | 0.00134 | –
298.15 K, m1 = 0.0002705 | 0.00142 | –
298.15 K, m1 = 0.0002902 | 0.0015 | –
298.15 K, m1 = 0.0002932 | – | 29.91
298.15 K, m1 = 0.0003155 | 0.00156 | –
298.15 K, m1 = 0.0003409 | 0.00161 | –
298.15 K, m1 = 0.0003662 | 0.00167 | –
298.15 K, m1 = 0.0003915 | 0.00173 | –
298.15 K, m1 = 0.0004169 | 0.00179 | –
298.15 K, m1 = 0.0004422 | 0.00185 | –
298.15 K, m1 = 0.0004676 | 0.0019 | –
298.15 K, m1 = 0.0004929 | 0.00196 | –
298.15 K, m1 = 0.0005183 | 0.00202 | –
298.15 K, m1 = 0.0005436 | 0.00208 | –
298.15 K, m1 = 0.000569 | 0.00213 | –
298.15 K, m1 = 0.0005943 | 0.00219 | –
298.15 K, m1 = 0.0006197 | 0.00225 | –
298.15 K, m1 = 0.000645 | 0.00231 | –
298.15 K, m1 = 0.0006703 | 0.00236 | –
298.15 K, m1 = 0.0006957 | 0.00242 | –
298.15 K, m1 = 0.000721 | 0.00248 | –
298.15 K, m1 = 0.0007464 | 0.00254 | –
298.15 K, m1 = 0.0007717 | 0.0026 | 29.14
298.15 K, m1 = 0.001543 | – | 28.62
298.15 K, m1 = 0.002315 | – | 28.22
298.15 K, m1 = 0.003087 | – | 28.01
303.15 K, m1 = 1.08e-05 | – | 52.51
303.15 K, m1 = 1.54e-05 | 0.00051 | –
303.15 K, m1 = 1.543e-05 | – | 49.91
303.15 K, m1 = 3.087e-05 | – | 44.82
303.15 K, m1 = 3.44e-05 | 0.000593 | –
303.15 K, m1 = 3.859e-05 | – | 42.83
303.15 K, m1 = 5.34e-05 | 0.000676 | –
303.15 K, m1 = 7.23e-05 | 0.000759 | –
303.15 K, m1 = 7.717e-05 | – | 38
303.15 K, m1 = 9.13e-05 | 0.000841 | –
303.15 K, m1 = 0.0001102 | 0.000924 | –
303.15 K, m1 = 0.0001292 | 0.00101 | –
303.15 K, m1 = 0.0001482 | 0.00109 | –
303.15 K, m1 = 0.0001544 | – | 32.62
303.15 K, m1 = 0.0001671 | 0.00117 | –
303.15 K, m1 = 0.0001861 | 0.00126 | –
303.15 K, m1 = 0.0002051 | 0.00134 | –
303.15 K, m1 = 0.000224 | 0.00142 | –
303.15 K, m1 = 0.0002315 | – | 29.91
303.15 K, m1 = 0.000243 | 0.0015 | –
303.15 K, m1 = 0.0002619 | 0.00159 | –
303.15 K, m1 = 0.0002797 | – | 28.96
303.15 K, m1 = 0.0002809 | 0.00167 | –
303.15 K, m1 = 0.0003067 | 0.00174 | –
303.15 K, m1 = 0.0003326 | 0.00181 | –
303.15 K, m1 = 0.0003584 | 0.00188 | –
303.15 K, m1 = 0.0003842 | 0.00195 | –
303.15 K, m1 = 0.0004101 | 0.00202 | –
303.15 K, m1 = 0.0004359 | 0.00209 | –
303.15 K, m1 = 0.0004617 | 0.00216 | –
303.15 K, m1 = 0.0004876 | 0.00223 | –
303.15 K, m1 = 0.0005134 | 0.0023 | –
303.15 K, m1 = 0.0005392 | 0.00237 | –
303.15 K, m1 = 0.0005651 | 0.00244 | –
303.15 K, m1 = 0.0005909 | 0.00251 | –
303.15 K, m1 = 0.0006167 | 0.00258 | –
303.15 K, m1 = 0.0006426 | 0.00265 | –
303.15 K, m1 = 0.0006684 | 0.00272 | –
303.15 K, m1 = 0.0006942 | 0.00279 | –
303.15 K, m1 = 0.0007201 | 0.00285 | –
303.15 K, m1 = 0.0007459 | 0.00293 | –
303.15 K, m1 = 0.0007717 | 0.003 | 28.21
303.15 K, m1 = 0.001543 | – | 27.64
303.15 K, m1 = 0.002315 | – | 27.64
303.15 K, m1 = 0.003087 | – | 27.64
308.15 K, m1 = 8.952e-06 | – | 50.44
308.15 K, m1 = 1.54e-05 | 0.00061 | –
308.15 K, m1 = 1.543e-05 | – | 46.51
308.15 K, m1 = 3.087e-05 | – | 41.89
308.15 K, m1 = 3.51e-05 | 0.000702 | –
308.15 K, m1 = 3.859e-05 | – | 40.38
308.15 K, m1 = 5.47e-05 | 0.000794 | –
308.15 K, m1 = 7.43e-05 | 0.000886 | –
308.15 K, m1 = 7.717e-05 | – | 35.57
308.15 K, m1 = 9.39e-05 | 0.000978 | –
308.15 K, m1 = 0.0001136 | 0.00107 | –
308.15 K, m1 = 0.0001332 | 0.00116 | –
308.15 K, m1 = 0.0001528 | 0.00125 | –
308.15 K, m1 = 0.0001544 | – | 31.04
308.15 K, m1 = 0.0001724 | 0.00135 | –
308.15 K, m1 = 0.000192 | 0.00144 | –
308.15 K, m1 = 0.0002117 | 0.00153 | –
308.15 K, m1 = 0.0002313 | 0.00162 | –
308.15 K, m1 = 0.0002509 | 0.00171 | –
308.15 K, m1 = 0.0002624 | – | 27.74
308.15 K, m1 = 0.0002705 | 0.00181 | –
308.15 K, m1 = 0.0002902 | 0.0019 | –
308.15 K, m1 = 0.0003087 | – | 27.74
308.15 K, m1 = 0.0003169 | 0.00198 | –
308.15 K, m1 = 0.0003437 | 0.00207 | –
308.15 K, m1 = 0.0003704 | 0.00215 | –
308.15 K, m1 = 0.0003972 | 0.00224 | –
308.15 K, m1 = 0.0004239 | 0.00232 | –
308.15 K, m1 = 0.0004507 | 0.00241 | –
308.15 K, m1 = 0.0004774 | 0.00249 | –
308.15 K, m1 = 0.0005042 | 0.00258 | –
308.15 K, m1 = 0.0005309 | 0.00266 | –
308.15 K, m1 = 0.0005577 | 0.00275 | –
308.15 K, m1 = 0.0005845 | 0.00283 | –
308.15 K, m1 = 0.0006112 | 0.00291 | –
308.15 K, m1 = 0.000638 | 0.003 | –
308.15 K, m1 = 0.0006647 | 0.00308 | –
308.15 K, m1 = 0.0006915 | 0.00317 | –
308.15 K, m1 = 0.0007182 | 0.00325 | –
308.15 K, m1 = 0.000745 | 0.00334 | –
308.15 K, m1 = 0.0007717 | 0.00342 | 27.55
308.15 K, m1 = 0.001543 | – | 27.08
308.15 K, m1 = 0.002315 | – | 26.79
308.15 K, m1 = 0.003087 | – | 26.79
